# pIC50: −log10 of the molar value.
# Key:
# [1] = tested on: 3-Hydroxy-3-Methylglutaryl Coenzyme A Reductase (HMGR); test: 3-Hydroxy-3-Methylglutaryl Coenzyme A Reductase (HMGR) Suppression Assay; format: cell-based, Chinese Hamster (CHO cells); conditions: CHO cells; for pIC50: 6 hr. at 37°, read-out: IC50 (amount of compound required to suppress HMGR activity by 50% relative to controls); for effect on measured HMGR activity: tested under these same conditions
# [2] = tested on: cholesterol biosynthesis pathway; test: Assay of 14C-Acetate Incorporation into the Biosynthesis of Cholesterol (HepG2 cells); format: cell-based; conditions: Homo sapiens, 22 hours with test compound, then 14C-acetate for additional 2 hours, read-out: IC50, inhibition of the incorporation of 14C-acetate into the cholesterol biosynthesis pathway
# Experimental: The HepG2 cells (a human hepatoma cell line) used in this example were obtained from the American Type Culture Collection (ATCC, Rockville, Md.). They were maintained in Dulbecco's Modified Eagles Medium and Ham's F12 Medium (1:1) supplemented with 10% heat inactivated Fetal Bovine serum, […] Herpes, 1 mM sodium pyruvate, 1×Non-essential Amino Acids (Gibco) and 2 mM L-glutamine.
# The cells were harvested by washing cultures with 10 ml Hank's Balanced Salt Solution (2×) and incubating with 0.125% Trypsin in Versene (0.02% EDTA) for approximately one minute. After the cells are visibly rounded and loosened from the flask, 9 ml of the above medium is added. The cells are transferred to a […] culture dish and syringed up and down through a 20 gauge needle to break up aggregated clumps of cells. Cell cultures are plated at 0.1×10^6 /ml and 0.075×10^6 /ml in two 24 well plates, respectively, aliquoting 1 ml cells/well. The cells are allowed to attach for 24 hours (48 hours for the lower density plate) before washing 2× with HBSS and refed with 1 ml of the above medium with 1% Cabosil delipidated serum instead of Fetal Bovine Serum. The cells are treated with the test compounds after 24 hours of exposure to the delipidated serum media.
# Chemicals are routinely prepared as a 10 mM solution in 100% ethanol or dimethyl sulfoxide (DMSO). All test compounds are added at 50 μM, 25 μM, 10 μM, 1 μM at a final concentration of 0.45% solvent, 0.25% Bovine Serum Albumin (BSA) suspension per well. The solvent BSA is sonicated for 10 seconds to ensure maximum solubilization before addition to the cells. Control wells receive solvent/BSA at the same concentrations as the drug treated cultures. […]
# The eluted sterols are dried under nitrogen gas and resuspended in 150 μL ethanol. […] The samples are counted on the dual label ^3 H:^14 C program on the Beckman scintillation counter Model LS 7800.
# The incorporation of both radiolabeled precursors into sterols is compared between the treated and non-treated (control) cultures and expressed as "% control" for each precursor. […]
Structure (SMILES),pIC50 [1],also measured
"CC(C)CCC[C@@H](C)[C@H]1CO[C@H]2C3=C(CC[C@]12C)[C@@]1(C)CC[C@H](O)C(C)(C)[C@@H]1CC3 [Example 2, 4,4-Dimethyl-15-oxa-5a-cholest-8-en-3b-ol]",6.52,
"CC(=O)O[C@H]1CC[C@]2(C)C3=C(CC[C@H]2C1(C)C)[C@]1(C=O)OC[C@H]([C@H](C)CCCC(C)C)[C@@]1(C)CC3 [Example 6, 3b-Acetoxy-15-oxa-32-oxolanost-8-ene]",7.12,
"CC(C)CCC[C@@H](C)[C@H]1CO[C@@]2(CO)C3=C(CC[C@]12C)[C@@]1(C)CC[C@H](O)C(C)(C)[C@@H]1CC3 [Example 8, 15-Oxa-lanost-8-ene-3b,32-diol]",5.60,
CC(C)CCC[C@@H](C)[C@H]1CO[C@@]2([C@@H](O)CO)C3=C(CC[C@]12C)[C@@]1(C)CC[C@H](O)C[C@@H]1CC3 [Example 17],5.71,
"C=C[C@@]12OC[C@H]([C@H](C)/C=C/[C@H](C)C(C)C)[C@@]1(C)CCC1=C2CC[C@H]2C(C)(C)[C@@H](O)CC[C@]12C [Example 28 (Compound 78), (22E)-4,4-Dimethyl-15-oxa-14α-vinylergosta-8,22-dien-3β-ol]",,pIC50 [2]: 7.30
"C=C[C@@]12OC[C@H]([C@H](C)/C=C/[C@H](C)C(C)C)[C@@]1(C)CCC1=C2CC[C@H]2C[C@@H](O)CC[C@]12C [Example 29 (Compound 80), (22E)-15-Oxa-14α-vinyl-ergosta-8,22-dien-3β-ol]",,pIC50 [2]: < 4.30
"CC[C@@]12OC[C@H]([C@H](C)CC[C@H](C)C(C)C)[C@@]1(C)CCC1=C2CC[C@H]2C[C@@H](O)CC[C@]12C [Example 30 (Compound 81), 14α-Ethyl-15-oxa-ergost-8-en-3β-ol]",,pIC50 [2]: 6.22
"CC(C)CCC[C@@H](C)[C@H]1CCO[C@H]2C3=C(CC[C@]12C)[C@@]1(C)CC[C@H](O)C(C)(C)[C@@H]1CC3 [Example 673, 4,4-dimethyl-14a-Oxa-D-homo-5a-cholest-8-en-3b-ol]",5.84,
CC(C)CCC[C@@H](C)[C@H]1CCS[C@@]2(C)C3=C(CC[C@]12C)[C@@]1(C)CC[C@H](O)C(C)(C)[C@@H]1CC3 [Example 1508],5.90,
"CC(C)CCC[C@@H](C)[C@H]1CC[C@H]2[C@@H]3CC=C4C[C@@H](O)CC[C@]4(C)[C@H]3CC[C@]12C [cholesterol, reference compound]",,effect on measured HMGR activity [1]: without effect
"CC(C)CCC[C@@H](C)[C@H]1CC[C@@]2(C)C3=C(CC[C@]12C)[C@@]1(C)CC[C@H](O)C(C)(C)[C@@H]1CC3 [lanost-8-en-3b-ol, reference compound]",,effect on measured HMGR activity [1]: without effect
"CC(C)=CCC[C@@H](C)[C@H]1CC[C@@]2(C)C3=C(CC[C@]12C)[C@@]1(C)CC[C@H](O)C(C)(C)[C@@H]1CC3 [lanosta-8,24-diene-3b-ol, reference compound]",,effect on measured HMGR activity [1]: without effect

# Second part, led by results:
pIC50 [1],Structure (SMILES),also measured
6.77,"C=C[C@@]12OC[C@H]([C@H](C)CCCC(C)C)[C@@]1(C)CCC1=C2CC[C@H]2C(C)(C)[C@@H](O)CC[C@]12C [Example 3, 4,4-Dimethyl-15-oxa-14a-vinyl-5a-cholest-8-en-3b-ol]",
7.40,"CC(C)CCC[C@@H](C)[C@H]1CO[C@@]2(C=O)C3=C(CC[C@]12C)[C@@]1(C)CC[C@H](O)C(C)(C)[C@@H]1CC3 [Example 7, 15-Oxa 32-oxodihydrolanosterol]",
6.70,"CC(C)CCC[C@@H](C)[C@H]1CO[C@@]2(C=NO)C3=C(CC[C@]12C)[C@@]1(C)CC[C@H](O)C(C)(C)[C@@H]1CC3 [Example 10, 3b-Hydroxy-15-oxa-lanost-8-en-32-aldoxime]",
5.60,"CC(C)CCC[C@@H](C)[C@H]1CO[C@@]2(C)C3=C(CC[C@]12C)[C@@]1(C)CC[C@H](O)C[C@@H]1CC3 [Example 13, 14a-Methyl-15-oxa-5a-cholest-8-en-3b-ol]",
5.60,CC(C)CCC[C@@H](C)[C@H]1CO[C@@]2([C@H](O)CO)C3=C(CC[C@]12C)[C@@]1(C)CC[C@H](O)C[C@@H]1CC3 [Example 16],
6.52,CC(C)CCC[C@@H](C)[C@H]1CO[C@@]2(C=O)C3=C(CC[C@]12C)[C@@]1(C)CC[C@H](O)C[C@@H]1CC3 [Example 18],
5.68,CC(C)CCC[C@@H](C)[C@H]1CO[C@@]2(CO)C3=C(CC[C@]12C)[C@@]1(C)CC[C@H](O)C[C@@H]1CC3 [Example 19],
7.10,CC(C)CCC[C@@H](C)[C@H]1CO[C@@]2(C=O)C3=C(CC[C@]12C)[C@@]1(C)CCC(=O)C(C)(C)[C@@H]1CC3 [Example 386],
5.60,"CC(C)CCC[C@@H](C)[C@H]1CCO[C@@]2(C=O)C3=C(CC[C@]12C)[C@@]1(C)CC[C@H](O)C(C)(C)[C@@H]1CC3 [Example 677, 14a-Oxa-32-oxo-D-homo-dihydrolanosterol]",
7.22,CC(C)CCC[C@@H](C)[C@H]1CS[C@@]2(C)C3=C(CC[C@]12C)[C@@]1(C)CC[C@H](O)C(C)(C)[C@@H]1CC3 [Example 857],
6.26,"CC(C)CCC[C@@H](C)[C@H]1CS[C@H]2C3=C(CC[C@]12C)[C@@]1(C)CC[C@H](O)C(C)(C)[C@@H]1CC3 [Example 858, 4,4-Dimethyl-15-thia-5a-cholest-8-en-3b-ol]",
7.22,"C=C[C@@]12SC[C@H]([C@H](C)CCCC(C)C)[C@@]1(C)CCC1=C2CC[C@H]2C(C)(C)[C@@H](O)CC[C@]12C [Example 859, 4,4-Dimethyl-15-thia-14a-vinyl-5a-cholest-8-en-3b-ol]",
6.52,CC(C)CCC[C@@H](C)[C@H]1C[S+]([O-])[C@@]2(C)C3=C(CC[C@]12C)[C@@]1(C)CC[C@H](O)C(C)(C)[C@@H]1CC3 (some centres unmarked) [Example 1303],
5.30,"CC(C)CCC[C@@H](C)[C@H]1CCS[C@H]2C3=C(CC[C@]12C)[C@@]1(C)CC[C@H](O)C(C)(C)[C@@H]1CC3 [Example 1509, 4,4-Dimethyl-15-thia-D-homo-5a-cholest-8-en-3b-ol]",
